The subject of data set [1] is Staphylococcus epidermidis. Nature of the data set: Antibacterial activity against Staphylococcus epidermidis after 16 to 18 hrs by broth microdilution method. In kind it is functional. To be noted: time 16-18 hrs.
Another data set deals with Klebsiella pneumoniae. Nature of the data set: Antibacterial activity against Klebsiella pneumoniae CICC 21611 after 16 to 18 hrs by broth microdilution method. It is filed as functional. To be noted: time 16-18 hrs.
Data set [2] deals with Staphylococcus aureus. Kind of data set: Anti-biofilm activity against methicillin-resistant Staphylococcus aureus assessed as growth inhibition at 0.031 microg/ml incubated for 24 hrs by microplate reader analysis relative to control. It is filed as functional.
Data set [3] relates to Staphylococcus aureus. Nature of the data set: Anti-biofilm activity against methicillin-resistant Staphylococcus aureus assessed as growth inhibition at 4 microg/ml incubated for 24 hrs by microplate reader analysis relative to control. It is filed as functional.
For data set [4], the system named is Acinetobacter baumannii. Nature of the data set: Anti-biofilm activity against Acinetobacter baumannii assessed as growth inhibition at 32 microg/ml incubated for 24 hrs by microplate reader analysis relative to control. It is filed as functional.
The target in the next data set is T1, Peptide deformylase (Escherichia coli, UniProt Q9JN24).
T1 sequence (Q9JN24 whole entry): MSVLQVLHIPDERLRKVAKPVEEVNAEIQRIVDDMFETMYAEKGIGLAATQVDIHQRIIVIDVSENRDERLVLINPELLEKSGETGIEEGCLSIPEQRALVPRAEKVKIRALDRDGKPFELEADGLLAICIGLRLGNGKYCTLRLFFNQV
Nature of the data set: Inhibition of Escherichia coli PDF-Ni assessed as enzyme activity incubated for 30 min by fluorescamine method.

The nature of data set [5]: Acute toxicity in KM mouse infected with drug-resistant Acinetobacter baumannii assessed as pathological changes in liver at 40 mg/kg by HE staining based analysis. In kind it is organism-based. To be noted: in vivo.
The test system of data set [6] is Staphylococcus aureus. Kind of data set: Bactericidal activity against methicillin-resistant Staphylococcus aureus assessed as bacteriostatic efficiency at 0.25 microg/mL incubated for 24 hrs by time killing analysis relative to control. In kind it is functional. To be noted: dose 0.25 µg/ml.
Data set [7] concerns Acinetobacter baumannii. Kind of data set: Bactericidal activity against drug-resistant Acinetobacter baumannii assessed as bacteriostatic efficiency at 2 microg/mL measured within 24 hrs by time killing analysis relative to control. The settings on record: dose 2.0 µg/ml. In kind it is functional, organism-based.
Data set [8] relates to Acinetobacter baumannii. Nature of the data set: In vivo anti-bacterial activity against drug-resistant Acinetobacter baumannii infected MK mouse assessed as pathological changes of organs at 40 mg/kg. In kind it is functional, organism-based.
A short description of data set [9]: Acute toxicity in normal mouse assessed as aberrant behaviors at 200 mg/kg, iv observed for 14 days. The settings on record: in vivo, 336 h, time 14 day. It is filed as organism-based.

Each structure is given as a SMILES string. Converted amounts (≈) assume the structure as drawn. The source made the active and inactive calls. The calls are words filed in the database; no cut-off is given here.

Take `CCCC[C@H](CN(O)C=O)C(=O)N1CCC[C@H]1c1nnc(-c2cccs2)s1`: the minimal inhibitory concentration (MIC) in [1] was 0.125 µg/mL (≈ 0.306 µM); in the data set with Klebsiella pneumoniae it was 8 µg/mL (≈ 19.6 µM). The inhibition at 0.031 µg/mL in the data set on Staphylococcus aureus [2] is 40%. For the same compound, the inhibition at 4 µg/mL with Staphylococcus aureus [3] came out at 88%. For the same compound, the inhibition at 32 µg/mL in the data set on Acinetobacter baumannii [4] is 70%. In addition, on Peptide deformylase, the IC50 is 10.6 nM. The Activity result is on record as “Non-toxic” in data set [5], 100% in the data set with Staphylococcus aureus [6] and “Non-toxic” in [9]. For the same compound, the outcome in the data set on Acinetobacter baumannii [7] was Active. Further, the result with Acinetobacter baumannii [8] was inactive.

(Values after ChEMBL document CHEMBL6121016, “Design, Synthesis, and Biological Evaluation of 1,3,4-Thiadiazole Derivatives as Novel Potent Peptide Deformylase Inhibitors for Combating Drug-Resistant Gram-Positive and -Negative Bacteria” (J Med Chem, 2025).)
